The results in this text go back to US20110251220A1, “Pharmaceutical compositions comprising gamma secretase modulators” (priority 2008, published 2011).

Structures are written as SMILES.

In assay [1] the test system is Hes-1. The assay is described as follows: Hes-1 mRNA expression in OCL (quantitative RT-PCR). The assay is classed as cell-based, human. Particulars: mono- and coculture with OPM-2. On the procedure: (§1) In osteoclast coculture experiments, OPM-2 cells (1×10^6 cells) were added to osteoclasts in 60 mm dishes (4×10^6 cells per dish) in 3 ml MEM medium supplemented with 10% FCS, 100 U/ml penicillin, 100 μg/ml streptomycin. GSI15 (30 μM, 60 μM) or DMSO (equivalent to 60 μM) as solvent control were added to each well (daily treatment). After 48 h, 0.5 ml OPM-2 cell suspension were harvested per well and subjected to AnnexinV-FITC/PI staining. Remaining OPM-2 cells were harvested and lysed for either RNA or protein preparation. The monolayer of osteoclasts was washed twice with ice-cold PBS and then lysed for either RNA or protein preparation directly on the plate.
(§2) Quantitative real-time reverse transcription-PCR (RT-PCR) analysis was performed using the following primer/probe sets: human Hes-1 (forward—[…], reverse—[…], probe—FAM-[…]-TAMRA) human TRAP5 (forward—[…], reverse—[…], probe FAM-[…]-TAMRA), human beta2-microglobulin (forward—ccc cca ctg aaa aag atg ag, reverse—atc caa tcc aaa tgc ggc, probe—FAM-CCTGCCGTGTGAACCATGTGACTTT-TAMRA) served as normalizer. […] For the RT-PCR reaction SuperScript™ III Platinum® One-Step Quantitative RT-PCR System (Invitrogen, Karlsruhe, Germany) was used. 50 ng total RNA were used per reaction, each RNA sample was analyzed in three replicates. […] Normalized mRNA expression data were then calculated as values relative to the respective untreated sample.

Assay [2] relates to tartrate resistant acid phosphatase-5 (TRAP5). Description: TRAP5 mRNA expression in OCL (quantitative RT-PCR). The class given is cell-based, human. Particulars: OCL after coculture with OPM-2. As for the experimental part: as §1, §2
Assay [3] deals with MSC. Description: PARP cleavage in mesenchymal stem cells (MSC), mono- and coculture. The class given is cell-based, human. Particulars: mono- and cocultures, high doses of GSI15. As for the experimental part: Whole cell extracts were prepared and quantified as described in Jundt F, Anagnostopoulos I, Forster R, Mathas S, Stein H, Dorken B. Activated Notch1 signaling promotes tumor cell proliferation and survival in Hodgkin and anaplastic large cell lymphoma. Blood. 2002; 99:3398-3403. Proteins (30 μg) were resolved by sodium dodecyl sulfate-polyacrylamide gel electrophoresis (SDS-PAGE) and transferred to nitrocellulose membranes. Protein loading was normalized by Ponceau red staining. Membranes were incubated with monoclonal mouse anti-Notch1 antibody (no. 552466; BD Biosciences, Heidelberg, Germany), anti-Jagged1 antibody (sc-8303; Santa Cruz Biotechnology), polyclonal rabbit anti-Delta antiboday (Santa Cruz Biotechnology), polyclonal rabbit anti-cleaved PARP (Asp214) antibody (Cell Signaling Technologies, Frankfurt a.M., Germany) or mouse monoclonal anti-tubulin antibody (Sigma, Deisenhofen, Germany).
Secondary antibodies were goat anti-mouse (Promega, Mannheim, Germany), goat anti-rat (Dianova, Hamburg, Germany), and goat anti-rabbit (Santa Cruz Biotechnology) horseradish peroxidase (HRP)-conjugated antibodies. Detection was done using Pico chemi-luminescence reagent (Perbio Science, Bonn, Germany).

Assay [4] relates to MSC. Description: Viability assay, MSC. The assay is classed as cell-based, human. On the procedure:
For assaying proliferation/viability of cells CellTiter-Glo Luminescent Cell Viability Assay (Promega, Mannheim, Germany) was used. In this assay the number of viable cells at a given time point is determined by quantification of ATP present, which serves as a measure of metabolically active cells. The assay was carried out according to manufacturer's protocol. Briefly, cells were plated in 96-well plates at 10,000 cells per well in 100 μl medium and treated with indicated amounts of GSI15, with DMSO as solvent control or left untreated. Each treatment was done in four independent replicates in different wells. 24 h and 48 h after start of treatment 30 μl per well were transferred into an opaque-walled plate and lysed using CellTiter-Glo solution. Luminescence was recorded and integrated for two seconds per well. Average values were calculated and normalized to the respective untreated sample.

The test system of assay [5] is human podocyte cell line. Description: TGFβ-induced apoptosis in human podocyte cell line (Cell Death Detection ELISA). The assay is classed as cell-based. As for the experimental part:
The percentage of the apoptotic cells was determined after 24 hours using the Cell Death Detection ELISA (Roche Diagnostics, Mannheim, Germany) according to the manufaturer's protocol.
(ELISA stands for enzyme-linked immunosorbent assay.)

Turning to `CC(C)c1ccc(S(=O)(=O)Nc2cccnc2Oc2ccc(Cl)cc2)cc1` [Example 1, N-(2-(4-chlorophenoxy)pyridin-3-yl)-4-isopropylbenzenesulfonamide], the “Hes-1 mRNA expression” value in assay [1] is “diminished Hes-1 mRNA expression”. Also, the “TRAP5 mRNA expression” value in assay [2] is given as “completely blocked the upregulation of TRAP5 mRNA expression”. Also, the “PARP cleavage (apoptosis)” value in assay [3] was “Neither in OBL nor in MSC apoptosis was induced”. In addition, in assay [4], the viability entry is “no difference between untreated and GSI15 treated”. The “effect in podocyte cell culture experiments” value in assay [5] is listed as “positive effect”. This molecule gave an inhibition at 0.5 µM in assay [5] (Homo sapiens, 500 nM, compared to TGFβ alone, 24 hours) of 41%.

By inhibition is commonly meant the relative decrease from the control value, in per cent. Lower therefore signals a weak effect.
